Bridges are numbered along the chain shown (N, C = ends). Where no end group is shown, it is not given here.
Assays:
alopecia = test: Conclusions from case test results (all types of alopecia); format: in vivo, human; conditions: external application; for Adverse events resulting from application: all cases
Description: (§1) The test subjects were patients with alopecia areata, androgenetic alopecia, postpartum alopecia, female pattern alopecia, alopecia pityroides, and senile alopecia. Diagnosis and treatment of these test subjects were carried out by the present inventors as physicians.
(§2) In general, in order to confirm the effect of an external medicine in an individual case, a method involving separate left and right applications is desirable. The separate left and right application method is a method in which, for example, an external medicine containing an active ingredient to be tested is applied to the left-hand side of an affected site, and an external medicine not containing the active ingredient is applied to the right-hand side, thus enabling a therapeutic effect to be confirmed. With regard to the test of the preparation of the present invention, a preparatory test was carried out in accordance with the separate left and right applications method. However, taking into consideration medical ethics, the preparatory test in accordance with the separate left and right applications method was minimized, and when a preparatory test was not carried out, a therapeutic effect was evaluated by comparison between that before application and that after application.
(§3) In order to carry out evaluation objectively, photographs before and after application of the NP preparation were recorded in all cases. Photographs of some of these cases are shown in the drawings.

[1] = system: cancer chemotherapy drug-induced alopecia; test: Case tests: application to hair loss sites of cancer chemotherapy drug-induced alopecia patients; format: in vivo, human
alopecia areata = test: Case tests: application to bald areas of alopecia areata patients; format: in vivo, human; conditions: previous treatment of the test subject (history); one value per case
Description: as §1
(§4) Clinical classification of alopecia was carried out in accordance with the Classification of the Japanese Dermatological Association, and evaluation of the severity of alopecia areata was carried out in accordance with the above-mentioned ‘USA Alopecia Areata Evaluation Guidelines’, the area of hair loss being classified using 6 grades of S0 to S5 and the hair loss site being classified using 3 grades of B0 to B2.
In general, in order to confirm the effect of an external medicine in an individual case, a method involving separate left and right applications is desirable. […] However, taking into consideration medical ethics, the preparatory test in accordance with the separate left and right applications method was minimized, and when a preparatory test was not carried out, a therapeutic effect was evaluated by comparison between that before application and that after application. […]
(§5) In order to carry out evaluation objectively, photographs before and after application of the NP preparation were recorded in all cases. […]

seborrheic alopecia = test: Case tests: application to hair loss sites of seborrheic alopecia patients; format: in vivo, human; conditions: previous treatment
androgenetic alopecia [2] = test: Case tests: application to hair loss sites of androgenetic alopecia patients; format: in vivo, human
Description: as §1, §4
In general, in order to confirm the effect of an external medicine in an individual case, a method involving separate left and right applications is desirable. […] With regard to the test of the preparation of the present invention, a preparatory test was carried out in accordance with the separate left and right applications method. However, taking into consideration medical ethics, the preparatory test in accordance with the separate left and right applications method was minimized, and when a preparatory test was not carried out, a therapeutic effect was evaluated by comparison between that before application and that after application.
Prior to administration of the ANP gel, BNP gel, CNP gel, BNP ointment, and CNP ointment of the present invention, as is routine for dermatological diagnosis and treatment, the test subjects were interviewed regarding age, gender, history of disease, and family history of disease; when an allergic predisposition was suspected, a scratch test against the main allergens and an evaluation thereof were carried out.
as §3

androgenetic alopecia [3] = conditions: androgenetic alopecia in males; cited from earlier work
thin head hair = conditions: applied twice a day after hair washing; cited from earlier work
alopecia pityroides = test: Case tests: application to hair loss sites of alopecia pityroides patients; format: in vivo, human; conditions: previous treatment
Description: as §1, §2
Prior to administration of the ANP gel, BNP gel, CNP gel, BNP ointment, and CNP ointment of the present invention, as is routine for dermatological diagnosis and treatment, the test subjects were interviewed regarding age, gender, history of disease, and family history of disease; when an allergic predisposition was suspected, a scratch test against the main allergens and an evaluation thereof were carried out. In dermatological diagnosis and treatment, since there are a relatively large number of patients who have strong immunoreactivity toward a specific allergen, or a disease such as atopic dermatitis that is suspected to be related to having an allergic predisposition, in order to assist diagnosis, an interview with respect to family history and previous history of allergic disease in addition to gender and age, and a scratch test toward the main allergens, are widely carried out as simple supplemental test methods.
Table 1 to Table 23 show the results of interviews with the test subjects and the results of the scratch test together with evaluation of the diagnostic findings and symptoms of the test subjects carried out in [Example 1] above.
as §3

postpartum alopecia = test: Case tests: application to hair loss sites of postpartum alopecia patients; format: in vivo, human; conditions: case C18
Description: as §1
as §2, with “application. […]” for “application.”
as §5

female pattern alopecia = test: Case tests: application to thinning hair sites of female pattern alopecia patients; format: in vivo, human; conditions: previous treatment
Description: as §1
as §2, with “application. […]” for “application.”
as §5

[4] = case C35, previous treatment (interview)
[5] = previous treatment of the test subject (history), one value per case

CC[C@H](C)[C@@H]1NC(=O)[C@H](CCCNC(=N)N)NC(=O)[C@H](CC(=O)O)NC(=O)[C@H](CC(C)C)NC(=O)[C@H](CCCCN)NC(=O)[C@H](CC(C)C)NC(=O)CNC(=O)[C@H](Cc2ccccc2)NC(=O)[C@@H](NC(=O)CNC(=O)[C@H](CCCCN)NC(=O)[C@H](CO)NC(=O)[C@H](CC(C)C)NC(=O)CN)CSSC[C@@H](C(=O)O)NC(=O)CNC(=O)[C@H](CC(C)C)NC(=O)CNC(=O)[C@H](CO)NC(=O)[C@H](CCSC)NC(=O)[C@H](CO)NC(=O)CNC1=O [CNP, human CNP-22]
Adverse events resulting from application (alopecia): did not exhibit any adverse events such as local symptoms of irritation, skin atrophy, or an itching sensation

COc1ccc2cc1Oc1ccc(cc1)C[C@H]1c3c(cc4c(c3Oc3cc5c(cc3OC)CCN(C)[C@@H]5C2)OCO4)CCN1C [cepharanthin]
Effect of cepharanthin [1, 4]: No effect
Effect of cepharanthin (alopecia areata): there had been no therapeutic effect

CC1(C)[C@@H](O)CC[C@]2(C)[C@H]3C(=O)C=C4[C@@H]5C[C@@](C)(C(=O)O)CC[C@]5(C)CC[C@@]4(C)[C@]3(C)CC[C@@H]12 [glycyrrhetinic acid]
Effect of glycyrrhetinic acid (seborrheic alopecia; case A12 (=A9, B11)): No effect
Effect of glycyrrhetinic acid (seborrheic alopecia; case B22 (=A9, B11)): No effect
Effect of glycyrrhetinic acid (androgenetic alopecia [2]; [5]): there had been no effect

CC(C)(C)NC(=O)[C@H]1CC[C@H]2[C@@H]3CC[C@H]4NC(=O)C=C[C@]4(C)[C@H]3CC[C@]12C [Finasteride, finasteride]
Proportion of patients improved (androgenetic alopecia [3]): about ¼

human ANP(1-28) (SLRRSSCFGGRMDRIGAQSGLGCNSFRY; disulfide 7-23; listed as Homo sapiens)
Therapeutic effect, conclusions from case test results (alopecia; agent containing the peptide as an active ingredient): effective only for alopecia in which there was no erythema, scale, seborrheic desquamation, etc. on the scalp
Hair growth (thin head hair): downy hair-like hair growth was observed on the frontal region with 1 week of ANP administration

COC(=O)CCC[N+](C)(C)C.[Cl-] [carpronium chloride]
Effect of carpronium chloride [1, 4]: No effect
Effect of conventional preparation ([1]; case C35, previous application for 6 months): There had been no effect
Effect of carpronium chloride (seborrheic alopecia; case B21 (=A8, B8)): No effect
Effect of carpronium chloride (alopecia pityroides; case A13 (=A6, C3, C4)): No effect
Effect of carpronium chloride (alopecia pityroides; case C30): No effect
Effect of carpronium chloride (alopecia pityroides; case C33): No effect
Effect of carpronium chloride (postpartum alopecia; previous treatment): No effect
Effect of conventional preparation (postpartum alopecia; previous treatment for 5 months): thinning hair on the crown had not improved
Effect of carpronium chloride (female pattern alopecia; case C19): No effect
Effect of conventional preparation (female pattern alopecia; cases B20, C19): there had been no effect
Effect of carpronium chloride (alopecia areata): No effect

Nc1cc(N2CCCCC2)nc(N)[n+]1[O-] [minoxidil]
Effect of minoxidil (seborrheic alopecia; case A12 (=A9, B11)): No effect
Effect of minoxidil (seborrheic alopecia; case B22 (=A9, B11)): No effect
Effect of minoxidil (alopecia pityroides; case B28): No effect
Effect of minoxidil (androgenetic alopecia [2]; case B9, previous treatment): No effect
Effect of minoxidil (androgenetic alopecia [2]; case C16, previous treatment): No effect
Effect of minoxidil (androgenetic alopecia [2]; [5]): No effect

CC[C@H](C)[C@@H]1NC(=O)[C@H](CCCNC(=N)N)NC(=O)[C@H](CC(=O)O)NC(=O)[C@H](CCSC)NC(=O)[C@H](CCCCN)NC(=O)[C@H](CCCNC(=N)N)NC(=O)CNC(=O)[C@H](Cc2ccccc2)NC(=O)[C@@H](NC(=O)CNC(=O)[C@H](CO)NC(=O)CNC(=O)[C@H](CCC(N)=O)NC(=O)[C@@H](NC(=O)[C@H](CCSC)NC(=O)[C@H](CCCCN)NC(=O)[C@@H]2CCCN2C(=O)[C@@H](N)CO)C(C)C)CSSC[C@@H](C(=O)N[C@@H](CCCCN)C(=O)N[C@H](C(=O)N[C@@H](CC(C)C)C(=O)N[C@@H](CCCN=C(N)N)C(=O)N[C@@H](CCCN=C(N)N)C(=O)N[C@@H](Cc2cnc[nH]2)C(=O)O)C(C)C)NC(=O)CNC(=O)[C@H](CC(C)C)NC(=O)CNC(=O)[C@H](CO)NC(=O)[C@H](CO)NC(=O)[C@H](CO)NC(=O)[C@H](CO)NC1=O [BNP, human BNP-32]
Adverse events resulting from application (alopecia): did not exhibit any adverse events such as local symptoms of irritation, skin atrophy, or an itching sensation

O=C(O)CCCC[C@@H]1SC[C@@H]2NC(=O)N[C@@H]21 [biotin]
Effect of conventional preparation (androgenetic alopecia [2]; previous treatment, cases C39, C26, B29): there had been no effect
